{"source": "paper doi:10.1101/2025.06.19.660642", "about": "“Discovery of orally bioavailable Zika and West Nile Virus antiviral compounds targeting the NS2B-NS3 protease” (bioRxiv, 2025)", "key": {"[1]": {"target": "T1, ZIKV NS2B-NS3 protease (Zika virus, UniProt A0A024B7W1)", "T1 construct": "directed at the co-expressed ZIKV NS2B-NS3 protease", "T1 sequence (A0A024B7W1 1503-1680)": "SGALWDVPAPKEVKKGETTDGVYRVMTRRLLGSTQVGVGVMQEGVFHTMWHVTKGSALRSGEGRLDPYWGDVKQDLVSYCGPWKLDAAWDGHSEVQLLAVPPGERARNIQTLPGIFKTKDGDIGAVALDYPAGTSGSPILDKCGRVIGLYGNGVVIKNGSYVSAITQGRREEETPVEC", "T1 sequence (A0A024B7W1 1425-1464)": "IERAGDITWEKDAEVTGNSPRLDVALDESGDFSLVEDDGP", "assay": "ZIKV NS2B-NS3 protease biochemical FRET assay", "settings": "ZIKV NS2B-NS3 Ki"}, "[2]": {"target": "T2, WNV NS2B-NS3 protease (West Nile virus, UniProt P06935)", "T2 construct": "some activity against the WNV NS2B-NS3 protease", "T2 sequence (P06935 1424-1463)": "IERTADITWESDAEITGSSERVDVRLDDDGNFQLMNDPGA", "T2 sequence (P06935 1502-1679)": "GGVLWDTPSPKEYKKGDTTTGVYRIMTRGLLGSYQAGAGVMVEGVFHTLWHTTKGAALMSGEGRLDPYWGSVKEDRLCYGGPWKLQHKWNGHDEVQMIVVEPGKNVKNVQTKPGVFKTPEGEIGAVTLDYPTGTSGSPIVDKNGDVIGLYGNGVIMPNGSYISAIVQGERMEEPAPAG", "assay": "WNV NS2B-NS3 protease biochemical inhibition"}, "[3]": {"tested_on": "ZIKV", "assay": "ZIKV antiviral assay (virus-induced cytopathy) in Vero E6 cells with P-gp inhibitor", "assay_type": "cell-based", "settings": "Zika virus", "protocol": "(§1) Figure 5. (A) Further characterization of ASAP-0027808. Papp was determined in MDR1-MDCK cells. Antiviral assays were performed in Vero E6 cells in a 7-day infection using 0.5 uM CP100356 as a P-gp inhibitor (see Supporting Information for more details). (B) The compound was successfully crystallized with ZIKV NS2B-NS3. ASAP-0016806 and ASAP-0027808 both appear to interact with the same residues (catalytic triad His51/Asp75/Ser135 colored yellow, other key residues Tyr161, NS2B Ser81, and NS2B Asp83 colored green). (C) Dose-dependent suppression of ZIKV-induced cytopathy in VeroE6 cells (n=2); no changes to cell viability of uninfected cells treated with the inhibitor was observed. Cells were co-treated with 0.5 μM CP100356 (as P-gp inhibitor). TEXT PRINTED IN THE PICTURE: (A) ASAP-0027808: ZIKV NS2B-NS3 Ki (μM): 0.090; ZIKV EC50 / CC50 (μM): 4.6 / >50; WNV NS2B-NS3 Ki (μM): 2.9; MW (g/mol): 313; CLint,app, HLM (μL/min/mg): < 10; MDR1-MDCK Papp A→B, B→A (10^-6 cm/sec): 2.0 ,11.0; Kinetic solubility (pH 7.4, μM): 279; LogD: 0.9"}, "[4]": {"assay": "Cytotoxicity in uninfected Vero E6 cells", "assay_type": "cell-based", "settings": "African green monkey; Vero cells + Pgpi, printed with WNV EC50; read-out: CC50 (WNV assay, Vero cells + Pgpi)", "protocol": "as §1"}, "[5]": {"tested_on": "Vero E6 cells", "assay": "Cytotoxicity in uninfected Vero E6 cells", "assay_type": "cell-based", "settings": "Vero E6 cells, 0.5 uM CP100356 as P-gp inhibitor", "protocol": "as §1"}, "[6]": {"tested_on": "ZIKV", "assay": "ZIKV antiviral assay in SH-SY5Y cells", "assay_type": "cell-based", "settings": "Zika virus"}, "[7]": {"tested_on": "WNV", "assay": "WNV antiviral assay in Vero cells with P-gp inhibitor", "assay_type": "cell-based", "settings": "West Nile virus, read-out: WNV EC50 (Vero cells + Pgpi)"}, "[8]": {"assay": "MDR1-MDCK permeability", "assay_type": "in vitro ADME", "settings": "dog", "protocol": "as §1"}, "[9]": {"assay": "Murine in vivo pharmacokinetics and tolerability", "parameters": "species or system mice", "settings": "mouse", "description": "Figure 8. […] (B) ASAP-0036543 was assigned the (S) configuration by crystallography and the compound assumed a similar binding mode to that observed with ASAP-0029000. (C) Murine in vivo pharmacokinetics for ASAP-0036543. […] TEXT PRINTED IN THE PICTURE: (A) ASAP-0036543: ZIKV Ki (μM): 0.0029; ZIKV EC50 / EC90 / CC50 (μM, SH-SY5Y cells): 0.48 / 0.75 / 38; ZIKV EC50 / EC90 / CC50 (μM, Vero cells + pgpi): 0.38 / 0.98 / >50; WNV Ki (μM): 0.058; WNV EC50 / CC50 (μM, Vero cells + Pgpi): 1.0 / >50; %F (150, 300, 600 mpk): 96 / 153 / 223; Vd,ss (L/kg): 7.9; CLp (mL/min/kg): 87; CLint,app, HLM, MLM (μL/min/mg): < 10, <10; MDR1-MDCK Papp A→B, B→A (10^-6 cm/sec): 1.2, 16; KSol (pH 7.4, μM): 389; LogD: 1.0\nThe compound had high kinetic solubility, low microsomal clearance, and acceptable permeability in an MDR1-MDCK cell line. Respectable antiviral potency against WNV in Vero cells was also noted, which had been hitherto difficult to achieve with the chemotype. […] ASAP-0036543 was then advanced to murine pharmacokinetic studies to assess its potential as an in vivo tool compound.[31]"}, "[10]": {"assay": "LogD"}, "[11]": {"assay": "Kinetic solubility", "settings": "pH 7.4"}, "[12]": {"assay": "Microsomal clearance, HLM", "settings": "human, microsomes"}, "[13]": {"assay": "Microsomal clearance, MLM", "settings": "mouse, microsomes"}, "[14]": {"assay": "Cytotoxicity in SH-SY5Y cells", "settings": "human"}}, "note": "Like-named read-outs stand apart in the source and are kept apart here.", "data": [{"molecule": "Cc1cc([C@H](Nc2ccc3c(c2)CNC3)C(=O)NCC(F)F)cc(C(F)(F)F)c1", "note": "[ASAP-0036543]", "values": [{"measurement": "Ki", "setting": "[1]", "result": 2.9, "unit": "nM"}, {"measurement": "Ki", "setting": "[2]", "result": 58, "unit": "nM"}, {"measurement": "EC50", "setting": "[3]; Vero C1008, 168 h, read-out: ZIKV EC50", "result": 380, "unit": "nM"}, {"measurement": "EC90", "setting": "[3]; Vero, read-out: ZIKV EC90 (Vero cells + pgpi)", "result": 980, "unit": "nM"}, {"measurement": "CC50", "setting": "[4]", "result": "> 50000", "unit": "nM"}, {"measurement": "CC50", "setting": "[5]", "result": "> 50000", "unit": "nM"}, {"measurement": "EC50", "setting": "[6]; read-out: ZIKV EC50 (SH-SY5Y cells)", "result": 480, "unit": "nM"}, {"measurement": "EC90", "setting": "[6]; read-out: ZIKV EC90 (SH-SY5Y cells)", "result": 750, "unit": "nM"}, {"measurement": "EC50", "setting": "[7]", "result": 1000, "unit": "nM"}, {"measurement": "Papp A→B", "setting": "[8]; MDCK-MDR1, A→B", "result": 1.2, "unit": "×10⁻⁶ cm/s"}, {"measurement": "Papp B→A", "setting": "[8]; MDCK-MDR1, B→A", "result": 16, "unit": "×10⁻⁶ cm/s"}, {"measurement": "bioavailability", "setting": "[9]; in vivo, 150 mg/kg, PO 150 mpk, read-out: %F", "result": 96, "unit": "%"}, {"measurement": "bioavailability", "setting": "[9]; in vivo, 300 mg/kg, PO 300 mpk, read-out: %F", "result": 153, "unit": "%"}, {"measurement": "bioavailability", "setting": "[9]; in vivo, 600 mg/kg, PO 600 mpk, read-out: %F (oral bioavailability)", "result": 223, "unit": "%"}, {"measurement": "clearance", "setting": "[9]; in vivo, read-out: CLp", "result": 87, "unit": "mL/min/kg"}, {"measurement": "Vd", "setting": "[9]; in vivo, read-out: Vd,ss", "result": 7.9, "unit": "L/kg"}, {"measurement": "tolerability", "setting": "[9]; single PO doses of 150, 300 and 600 mg/kg", "result": "well-tolerated"}, {"measurement": "logD", "setting": "[10]", "result": 1}, {"measurement": "solubility kinetic", "setting": "[11]", "result": 389, "unit": "µM"}, {"measurement": "microsomal CLint", "setting": "[12]", "result": "< 10", "unit": "µL/min/mg"}, {"measurement": "microsomal CLint", "setting": "[13]", "result": "< 10", "unit": "µL/min/mg"}, {"measurement": "CC50", "setting": "[14]", "result": 38000, "unit": "nM"}]}]}
